In paper PMC3089059 (Bioorganic & medicinal chemistry, 2011):

What was measured:
JNK1 [1] = biological target: T1, JNK1 (Homo sapiens, UniProt P45983); format: biochemical
Plasma stability assay = format: in vitro ADME; conditions: after 60 min of incubation in rat plasma, 1 μM, 37 °C
[2] = Microsomal stability assay; format: in vitro ADME; conditions: after 60 min of incubation in rat microsomal preparations, 4 μM, NADPH
JNK1 [3] = biological target: JNK1 (Homo sapiens, UniProt P45984); assay: biochemical; format: binding; conditions: ITC
Chain of JNK1 (Homo sapiens, UniProt P45984) (P45984 whole entry): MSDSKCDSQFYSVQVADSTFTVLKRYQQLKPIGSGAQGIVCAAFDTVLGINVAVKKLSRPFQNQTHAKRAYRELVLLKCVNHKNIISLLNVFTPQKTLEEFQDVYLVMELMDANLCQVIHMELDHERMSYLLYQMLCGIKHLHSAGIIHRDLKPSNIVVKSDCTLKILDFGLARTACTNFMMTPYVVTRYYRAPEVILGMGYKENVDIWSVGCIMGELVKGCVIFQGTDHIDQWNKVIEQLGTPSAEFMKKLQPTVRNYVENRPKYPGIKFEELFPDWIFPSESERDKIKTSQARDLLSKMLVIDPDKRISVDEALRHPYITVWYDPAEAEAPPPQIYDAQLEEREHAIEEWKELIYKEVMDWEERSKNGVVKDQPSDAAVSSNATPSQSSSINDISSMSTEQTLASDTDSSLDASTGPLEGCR

JNK1 [4] = biological target: T1, JNK1; assay: DELFIA assay, displacement of biotinylated pepJIP1 from GST-JNK1; format: binding

T1 sequence (P45983 whole entry): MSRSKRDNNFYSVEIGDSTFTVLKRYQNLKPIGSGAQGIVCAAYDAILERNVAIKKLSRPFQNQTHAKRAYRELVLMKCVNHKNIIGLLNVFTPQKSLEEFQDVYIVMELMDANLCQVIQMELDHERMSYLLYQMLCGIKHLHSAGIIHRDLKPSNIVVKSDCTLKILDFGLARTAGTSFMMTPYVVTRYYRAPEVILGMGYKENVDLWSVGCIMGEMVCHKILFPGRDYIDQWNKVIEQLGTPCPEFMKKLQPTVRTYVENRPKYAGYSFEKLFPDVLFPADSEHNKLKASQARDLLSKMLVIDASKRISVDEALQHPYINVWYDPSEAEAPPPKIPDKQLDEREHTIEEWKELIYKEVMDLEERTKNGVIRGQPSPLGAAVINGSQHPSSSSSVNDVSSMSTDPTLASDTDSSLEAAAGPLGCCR

Structure (SMILES)	JNK1 inhibitory activity (in words) (JNK1 [1])	plasma stability (Plasma stability assay)	degraded [2] [%]	also measured
O=C(Cc1cccc2ccccc12)Nc1sccc1C(=O)O [Compound 5a]	significant loss of JNK1 inhibitory activity			
NC(=O)c1ccsc1NC(=O)Cc1ccccc1Cl [Compound 26]		basically unaltered	70	
NC(=O)c1ccsc1NC(=O)Cc1csc2ccccc12 [Compound 25]		basically unaltered	85	mode of inhibition versus ATP (Lineweaver-Burk) (JNK1 [1]; increasing ATP concentrations): ATP competitive inhibitor; mode of inhibition versus substrate ATF2 (Lineweaver-Burk) (JNK1 [1]; increasing substrate ATF2 concentrations): mixed substrate competitive inhibitor; Kd (JNK1 [3]; in presence of ATP (saturating non-hydrolizable ATP)): 1.1 µM; Kd (JNK1 [3]; in presence of pepJIP1 (saturating)): 3.1 µM
Cc1sc(NC(=O)Cc2cccc3ccccc23)c(C(N)=O)c1C [Compound 1, 4,5-dimethyl-2-(2-(naphthalen-1-yl)acetamido)thiophene-3-carboxamide]				IC50 (JNK1 [4]): 15.8 µM
NC(=O)c1ccc(NC(=O)Cc2cccc3ccccc23)s1 [Compound 5f]	completely inactive			
COC(=O)c1ccsc1NC(=O)Cc1cccc2ccccc12 [Compound 5b]	significant loss of JNK1 inhibitory activity			
N#Cc1ccsc1NC(=O)Cc1cccc2ccccc12 [Compound 5c]	significant loss of JNK1 inhibitory activity			
NC(=O)c1ccsc1NC(=O)Cc1cccc(Br)c1 [Compound 33]		basically unaltered	74	
